Measurements reported in patent publication US20100017895A1, “Small animal model for hcv replication” (priority 2005, published 2010).

Tests used:
[1] = test system: HCV replicon in T7-11 cells; assay: Subcutaneous T7-11 replicon cell model in gamma-irradiated SCID mice (bioluminescence, NS5B IFA, RT-PCR, cPARP, Ki67)
Procedure: Efficacy studies with T7-11 implanted mice were initiated when the bioluminescence signal was stable and approximately two logs above background. […] Control animals received human albumin.
BILN 2061 was administered at 30 mg/kg once daily starting day 21-post subcutaneous implantation of T7-11 cells.
Cell implantation. Female SCID mice were shaved at the site of cell implantation and gamma-irradiated with 3 Gy either one-day prior to or on the same day as cell implant. For subcutaneous implantation, five million cells in 0.2 ml of HBSS were implanted at the right flank.
Whole body in vivo imaging. Anesthetized mice were injected intraperitoneally with 150 mg/kg of luciferin (Xenogen Corporation, Alameda, Calif.). After 10-20 minutes, mice were imaged using a CCD camera in the Xenogen IVIS™ imaging system. The bioluminescence signal intensity was quantified using Living Image Software (Xenogen Corporation, Alameda, Calif.).
Statistical analysis. Differences in bioluminescence signal between control and treatment groups of mice were compared by the two-tailed Mann-Whitney test. Differences in signal among the control, treatment and rebound groups of mice and among combination groups were compared by the nonparametric Kruskal-Wallis test A P-value <0.05 was considered significant.

[2] = Pharmacokinetic (PK) data, subcutaneous route; type: in vivo
[3] = test system: HCV replicon in T7-11 cells; assay: Liver model with T7-11 replicon cells in gamma-irradiated SCID mice; type: in vivo; settings: 30 mg/kg SC once daily from day 25 post tumor cell implantation; within three days
Procedure: To evaluate the efficacy of IFN-α in liver, T7-11 cells were directly injected into one lobe of the liver in gamma irradiated SCID mice. […] To confirm that the luciferase signal was associated with the liver, the locations of tumors were determined by physical examination at the end of study
The antiviral effect of BILN 2061 on HCV replication was also examined. BILN 2061 was administered subcutaneously at 30 mg/kg once daily starting day 25-post tumor cell implantation.
Whole body in vivo imaging.

Substance | signal after treatment was terminated ([1]; 30 mg/kg SC QD three days, several days after termination) | adverse effect on the replicon-containing cells ([1]; 30 mg/kg SC once daily for three days) | decrease of bioluminescence signal compared to the control group ([1]; 30 mg/kg SC once daily from day 21, within three days) | fold decrease of mean bioluminescence signal as compared to the control group ([1]; two days after treatment, SC daily from day 18, BILN 2061 30 mg/kg and/or IFN-α 15,000 IU) [fold] | duration of sustained plasma exposure [2] | fold decline in bioluminescence compared to the untreated control group [3] [fold] | effect on bioluminescence signal ([1]; 1 mg/kg, over 5 days of treatment)
BILN 2061 | returned to the levels similar to the untreated control group | did not have any adverse effect on the replicon-containing cells | approximately two | 16 | more than 24 hr | 10 | 
Interleukin 2 [IL-2] |  |  |  |  |  |  | no effect
